These results are taken from patent US9226916B2, “Pyrrolidine derivatives” (HOFFMANN-LA ROCHE INC., priority 2009, dated 2016).

The target in one experiment is T1, recombinant human NK3 receptor (Homo sapiens, UniProt P29371).
T1 construct: expressed in transfected cells; host or cells: HEK293 cells, transient expression; membranes
T1 sequence (P29371 1-465): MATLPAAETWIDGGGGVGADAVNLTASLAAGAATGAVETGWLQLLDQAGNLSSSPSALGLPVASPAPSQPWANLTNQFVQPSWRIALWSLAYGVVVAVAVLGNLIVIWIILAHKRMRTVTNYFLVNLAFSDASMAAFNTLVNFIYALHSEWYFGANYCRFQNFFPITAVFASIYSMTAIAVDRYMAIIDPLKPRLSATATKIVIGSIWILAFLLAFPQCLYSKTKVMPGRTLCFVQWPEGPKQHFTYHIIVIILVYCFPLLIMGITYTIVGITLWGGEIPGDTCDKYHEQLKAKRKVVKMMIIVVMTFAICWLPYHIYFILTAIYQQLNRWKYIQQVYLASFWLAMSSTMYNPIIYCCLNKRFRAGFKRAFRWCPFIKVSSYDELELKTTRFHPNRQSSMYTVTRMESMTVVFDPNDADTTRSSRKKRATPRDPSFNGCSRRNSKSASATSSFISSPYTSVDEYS
In words: [3H]SR142801 competition binding assay.
Conditions: not given
For orientation: Ki means the dissociation constant of the complex between target and ligand, obtained from inhibition or displacement. With `CN(C(=O)Oc1ccc(F)cc1)[C@@H]1CN(C(=O)C2CCN(C(=O)OC(C)(C)C)C2)C[C@H]1c1ccc(Cl)cc1` (stereo partly drawn) [Example 151, 3-{(3R,4S)-3-(4-Chloro-phenyl)-4-[(4-fluoro-phenoxycarbonyl)-methyl-amino]-pyrrolidine-1-carbonyl}-pyrrolidine-1-carboxylic acid tert-butyl ester], the inhibitory constant (Ki) stood at 18.2 nM.

As to `CN(C(=O)Oc1ccc(F)cc1)[C@H]1CN(C(=O)C2CCN(c3ccc(C#N)cn3)CC2)C[C@@H]1c1ccc(Cl)c(Cl)c1` (racemic) [Example 80, rac-[(3R,4S)-1-(5′-Cyano-3,4,5,6-tetrahydro-2H-[1,2′]bipyridinyl-4-carbonyl)-4-(3,4-dichloro-phenyl)-pyrrolidin-3-yl]-methyl-carbamic acid 4-fluoro-phenyl ester], the Ki is 0.3 nM.

`CN(C(=O)Oc1ccc(F)cc1)[C@H]1CN(C(=O)[C@H]2CC[C@@](C)(O)CC2)C[C@@H]1c1ccc(Cl)c(Cl)c1` (racemic) [Example 53, rac-[(3R,4S)-4-(3,4-Dichloro-phenyl)-1-(cis-4-hydroxy-4-methyl-cyclohexanecarbonyl)-pyrrolidin-3-yl]-methyl-carbamic acid 4-fluoro-phenyl ester]: the Ki turned out to be 4.7 nM.

With `CN(C(=O)Oc1ccc(F)cc1)[C@H]1CN(C(=O)C2CCN(c3ccc(C#N)cn3)CC2)C[C@@H]1c1ccc(Cl)cc1` [Example 122, [(3R,4S)-4-(4-Chloro-phenyl)-1-(5′-cyano-3,4,5,6-tetrahydro-2H-[1,2′]bipyridinyl-4-carbonyl)-pyrrolidin-3-yl]-methyl-carbamic acid 4-fluoro-phenyl ester], the Ki was determined as 19 nM.

For `CC(=O)Oc1ccc(N2CCC(C(=O)N3C[C@@H](N(C)C(=O)Oc4ccc(F)cc4)[C@H](c4ccc(Cl)cc4)C3)CC2)nc1` [Example 321, Acetic acid 4-{(3R,4S)-3-(4-chloro-phenyl)-4-[(4-fluoro-phenoxycarbonyl)-methyl-amino]-pyrrolidine-1-carbonyl}-3,4,5,6-tetrahydro-2H-[1,2′]bipyridinyl-5′-yl ester], the Ki is 2.4 nM.

Take `CC(OC(=O)N(C)[C@@H]1CN(C(=O)C2CCN(c3ccc(C#N)cn3)CC2)C[C@H]1c1ccc(Cl)cc1)c1ccc(F)cc1` (stereo partly drawn) [Example 226, [(3S,4R)-4-(4-Chloro-phenyl)-1-(5′-cyano-3,4,5,6-tetrahydro-2H-[1,2′]bipyridinyl-4-carbonyl)-pyrrolidin-3-yl]-methyl-carbamic acid 1-(4-fluoro-phenyl)-ethyl ester]: the Ki stood at 79.2 nM.

On to `CN(C(=O)Oc1ccc(F)cc1)[C@@H]1CN(C(=O)C2CCN(c3ccc(F)cn3)CC2)C[C@H]1c1ccc(F)c(Cl)c1` [Example 315, [(3S,4R)-4-(3-Chloro-4-fluoro-phenyl)-1-(5′-fluoro-3,4,5,6-tetrahydro-2H-[1,2′]bipyridinyl-4-carbonyl)-pyrrolidin-3-yl]-methyl-carbamic acid 4-fluoro-phenyl ester], for which the Ki turned out to be 1.7 nM.

For `CN(C(=O)Oc1ccc(F)cc1)[C@@H]1CN(C(=O)C2CCN(c3ccc(C(N)=O)cn3)CC2)C[C@H]1c1ccc(Cl)c(Cl)c1` [Example 310, [(3S,4R)-1-(5′-Carbamoyl-3,4,5,6-tetrahydro-2H-[1,2′]bipyridinyl-4-carbonyl)-4-(3,4-dichloro-phenyl)-pyrrolidin-3-yl]-methyl-carbamic acid 4-fluoro-phenyl ester], the Ki came to 0.6 nM.

Staying with this experiment, now noted: hNK-3 receptor affinity; membranes from HEK293 cells transiently expressing recombinant human NK3 receptor; [3H]SR142801; Cheng-Prussoff; read-out: Data Ki.
As for `CN(C(=O)OCC1(C)CC1)[C@@H]1CN(C(=O)C2CCN(C(=O)C3(C)CC3)CC2)C[C@H]1c1ccc(Cl)c(Cl)c1` [Example 105, {(3S,4R)-4-(3,4-Dichloro-phenyl)-1-[1-(1-methyl-cyclopropanecarbonyl)-piperidine-4-carbonyl]-pyrrolidin-3-yl}-methyl-carbamic acid 1-methyl-cyclopropylmethyl ester], the Ki worked out at 70.5 nM.
